This is an account of results in patent US9790286B2, “Stereoisomer peptides, their polymer conjugates, their encapsulation into nanoparticles, and uses thereof for the treatment of diseases caused by abnormal angiogenesis” (priority 2013, dated 2017).

Each structure is given as a SMILES string.

The test system of series [1] is MiaPaca-2 Xenograft. The series is described as follows: MIAPaCa-2 xenograft mouse model of pancreatic ductal carcinoma. Format: in vivo. As to conditions: 120 mg/Kg i.p. twice a week for 6 weeks. As to the method:
(§1) Peptides in their stereoisomer forms were tested in vivo using two mouse models of human pancreatic ductal adenocarcinoma: the PANC-1 Xenograft mouse model and the MiaPaca-2 Xenograft mouse model. Athymic male nude mice (nu/nu) were injected s.c. with cultured […] human pancreatic cancer cells from each different model in the right mice flanks After tumors reached ˜150 mm^3 mice were randomly separated into three groups (n=3/group). Group 1 was treated with vehicle; Group 2 was treated with 120 mg/Kg Gemcitabine (standard established dose); and Group 3 was treated with 25 mg/kg of a combination of four stereoisomer peptides. Mice were dosed by i.p. injection twice a week for 6 weeks.
In this model the tumors of treated mice grew slowly compared to untreated mice (see FIG. 14A). […] These two human mouse models confirm the therapeutic potency, efficacy, and value of the stereoisomer peptides to treat pancreatic cancer, one of the deadliest cancers for which there are no therapies.

The test system of series [2] is PANC-1 Xenograft. Briefly: PANC-1 xenograft mouse model of pancreatic ductal carcinoma. Format: in vivo. The note with it: 120 mg/Kg i.p. twice a week for 6 weeks. As to the method:
as §1

As to `Nc1ccn([C@@H]2O[C@H](CO)[C@@H](O)C2(F)F)c(=O)n1` [Gemcitabine], in series [1], the body weight entry is on record as “lost body weight”, the condition of mice entry is recorded as “moribund” and the livers after euthanasia result is given as “dark with signs of necrosis”. The condition of mice result in series [2] is given as “moribund”.
